# Measured values from US20260115181A1, “TRANSCRIPTION FACTOR PFAP2-O5 INHIBITOR FOR PLASMODIUM FALCIPARUM, PHARMACEUTICAL COMPOSITION, AND DRUG FOR TREATING MALARIA RESISTANT TO ARTEMISININ AND ANALOG THEREOF” (priority 2023, published 2026).
# Columns and labels:
# [1] = Liver microsomal metabolism assay, mouse; format: in vitro ADME
# Procedure: (§1) In the microsomal metabolism assay, the inhibitor was incubated with liver microsomes from different species; the reaction was terminated at different time points; the remaining amount of the inhibitor in the samples at each time point was determined using LC-MS/MS. The percentage of parent drug remaining was calculated, and the hepatic intrinsic clearance CLint(liver) was finally obtained. Testosterone was used as a control in this study to verify the reliability of the experimental system. The detailed procedures were as follows: • The incubation system consisted of 0.1 M Tris-HCl buffer (pH 7.4), 1 mM MgCl2, 1 mM NADPH (Nicotinamide Adenine Dinucleotide Phosphate), and 0.5 mg/ml microsomes, and the final reaction volume was 200 μL. […] inhibitor and testosterone were pre-incubated with liver microsomes from different species in a 37° C. water bath for 5 minutes. 100 μL of NADPH was added to initiate the reaction. 400 μL of stop solution was added to terminate the reaction at time points of 0 minutes, 5 minutes, 15 minutes, 30 minutes, 45 minutes, and 60 minutes. 40 μL of internal standard was added, and the mixture was vortexed for 5 minutes and centrifuged at 20,000 g and 4° C. for 5 minutes. 100 μL of the supernatant was taken and diluted with 100 μL of water for injection and analysis. The retention time of the compound and the internal standard, chromatogram acquisition, and chromatogram integration were processed by Analyst 1.6.3 software. The compound was subjected to linear regression with a weighting coefficient of 1/X^2 to calculate the concentration at each time point. The natural logarithm of the percentage remaining at each time point was linearly regressed against the incubation time to calculate the in vitro elimination rate constant k. The half-life (T1/2) and hepatic intrinsic clearance CLint(liver) of the test article were calculated according to the following formula.
# (§2) hepatic microsomal clearance CLint(mic)=0.693/half-life/mg microsomal protein per mL; hepatic intrinsic clearance CLint(liver)=hepatic microsomal clearance×mg microsomal protein/gram of liver×liver weight-to-body weight ratio. The liver weight-to-body weight ratios of mice, rats, and humans were 88, 40, and 20 g/kg, respectively; the average value of mg microsomal protein/gram of liver in different species was 45.
# [2] = test system: human renal epithelial cell line 293T; experiment: Cytotoxicity, CCK8 assay, 293T cells; format: cell-based; conditions: 72 hours
# Procedure: (§3) Mammalian 293T and HepG2 cells were cultured and passaged, trypsinized, and resuspended in DMEM. The cells were counted using a hemocytometer and diluted to 10^5 cells/mL. The cell suspension was evenly added to a 96-well plate, with 100 μL per well. After the cells were subjected to attachment culture in a 37° C. incubator (5% CO2) for 24 hours, the inhibitors of the corresponding concentrations were added. Gradient dilution (11 concentration gradients) was performed at a 1/2 ratio according to the doubling gradient dilution. Complete culture medium was used as a negative control, and DMEM was used as a background control. After the culture in a 37° C. incubator (5% CO2) for 72 hours, 10 μL of CCK8 reagent was added to each well. The plate was incubated in a 37° C. incubator (5% CO2) for 1 hour. The absorbance at a 450 nm wavelength was read by a microplate reader, and a survival rate was calculated based on the absorbance.
# (§4) [formula] • where Abtreated, Abbackground, and Abcontrol represent the absorbance values of the small molecule drug group, the DMEM control group, and the untreated control group, respectively. The inhibition rate of the drug was calculated based on the survival rate at different concentrations, and the growth inhibition curve was summarized as inhibition rate-drug concentration. The IC50 was calculated using SPSS 18.0 software.
# PfAP2-O5 = experiment: Transcriptome sequencing (RNA-seq) analysis of effects on PfAP2-O5 target (invasion) gene expression; format: cell-based, Plasmodium falciparum; conditions: wild-type strain, 1 μM
# Procedure: Wild-type and pfap2-o5 conditional knockdown Plasmodium falciparum strains were treated with the hexahydroquinoline derivative represented by formula (I), respectively. After strict synchronization of the Plasmodium falciparum strains, 1 μM hexahydroquinoline derivative was added one life cycle in advance. After one life cycle, the ring (10-15 hours), trophozoite (28-32 hours), and schizont (40-44 hours) stage cultures of the wild-type and pfap2-o5 conditional knockdown Plasmodium falciparum strains treated with the hexahydroquinoline derivative were collected. Total RNA was purified using the Direct-zol RNA kit, strand-specific RNA sequencing libraries were then prepared using KAPA mRNA beads, and the RNA was fragmented. The libraries were sequenced on the Illumina HiSeq X Ten system, and the differential gene expression between the two Plasmodium falciparum strains after inhibitor treatment was analyzed.
# Plasmodium falciparum = experiment: In vitro growth inhibition of Plasmodium falciparum (3-day SYBR Green I cell growth assay); format: cell-based; conditions: wild-type Plasmodium falciparum, 72 hours, read-out: IC50 of the quantitative growth inhibitory effect on in vitro culture of Plasmodium falciparum
# Procedure: 100 μL of complete culture medium was added to a 96-well plate. 200 μL of a compound stock solution with a concentration of 200 μM was added to the first well. Gradient dilution (11 concentration gradients) was performed at a 1/2 ratio according to the doubling gradient dilution. Dihydroartemisinin (DHA) was used as a positive control, complete culture medium was used as a negative control, and red blood cells without Plasmodium falciparum or compounds were used as a background control.
# 100 μL of wild-type Plasmodium falciparum culture (1% parasitemia, 4% hematocrit) was accurately added to each well, so that finally, the parasitemia in each well was 0.5%, and the hematocrit was 2%. The final concentration gradients of the compound were 100 μM, 50 μM, 25 μM, 12.5 μM, 6.25 μM, 3.125 μM, 1.5625 μM, 0.78125 μM, 0.390625 µM, 0.195313 μM, and 0.097656 μM. […] After the incubation was completed, a fluorescence intensity was recorded on a microplate reader with an excitation wavelength of 485 nm and an emission wavelength of 535 nm. The inhibition rate of the small molecule inhibitor on the growth of Plasmodium falciparum was calculated based on the fluorescence intensity.
# [formula] • where Fltreated, Flbackground, and Flcontrol represent the fluorescence intensity values of the candidate small molecule drug group, the red blood cell control group, and the untreated control group, respectively. […]
# [3] = Liver microsomal metabolism assay, human; format: in vitro ADME
# Procedure: as §1, §2
# [4] = Liver microsomal metabolism assay, rat; format: in vitro ADME
# Procedure: as §1, §2
# [5] = test system: human liver cancer cell line HepG2; experiment: Cytotoxicity, CCK8 assay, HepG2 cells; format: cell-based; conditions: HepG2, 72 hours
# Procedure: as §3, §4
smiles,measurement,setting,value
CC1=C(C(=O)Nc2cccc(C(F)(F)F)c2)C(c2cccc([N+](=O)[O-])c2)C2=C(CC(C)(C)CC2=O)N1 (centres unmarked) [hexahydroquinoline derivative],CLint scaled,"[1]; liver microsomes, pH 7.4, mouse, hepatic intrinsic clearance CLint(liver), scaled with 45 mg protein/g liver, 88 g/kg",176 mL/min/kg
same,clearance classification,[1]; mouse liver microsomes,moderate-clearance compound
same,k,"[1]; mouse liver microsomes 0.5 mg/ml, 1 mM NADPH, 1 M inhibitor, 37° C.",0.0222 min⁻¹
same,half-life,"[1]; pH 7.4, mouse liver microsomes 0.5 mg/ml, 1 mM NADPH, 37° C.",31.2 min
same,cytotoxicity to mammalian cells,[2],low cytotoxicity
same,expression of PfAP2-O5 target genes after treatment,PfAP2-O5,downregulated
same,decrease of expression levels of merozoite surface structural protein family (invasion) genes (mRNA level),PfAP2-O5; added one life cycle in advance,more than 1.5 fold
same,IC50,Plasmodium falciparum,2160 nM
same,clearance classification,[3]; human liver microsomes,moderate-clearance compound
same,k,"[3]; human liver microsomes 0.5 mg/ml, 1 mM NADPH, 1 M inhibitor, 37° C.",0.0124 min⁻¹
same,CLint scaled,"[3]; liver microsomes, pH 7.4, human, hepatic intrinsic clearance CLint(liver), scaled with 45 mg protein/g liver, 20 g/kg",22.3 mL/min/kg
same,half-life,"[3]; pH 7.4, human liver microsomes 0.5 mg/ml, 1 mM NADPH, 37° C.",55.9 min
same,CLint scaled,"[4]; liver microsomes, pH 7.4, rat, hepatic intrinsic clearance CLint(liver), scaled with 45 mg protein/g liver, 40 g/kg",178 mL/min/kg
same,half-life,"[4]; pH 7.4, rat liver microsomes 0.5 mg/ml, 1 mM NADPH, 37° C.",14.1 min
same,clearance classification,[4]; rat liver microsomes,high-clearance compound
same,k,"[4]; rat liver microsomes 0.5 mg/ml, 1 mM NADPH, 1 M inhibitor, 37° C.",0.0493 min⁻¹
same,cytotoxicity to mammalian cells,[5],low cytotoxicity
